# Measured values as given in patent publication US6455541B1, “Suppression, by 5-lipoxygenase inhibitors, of bone resorption” (Board of Regents, The University of Texas System, priority 1994, dated 2002).
# Where “and” joins values, the source holds several entries; their conditions need not be identical. Equal values may be shown once.
# B1: PTH: parathyroid hormone (protein, UniProt P01270 32-115, looked up)
# Parathyroid hormone: SVSEIQLMHNLGKHLNSMERVEWLRKKLQDVHNFVALGAPLAPRDAGSQRPRKKEDNVLVESHEKSLGEADKADVNVLTKAKSQ
# modifications: Parathyroid hormone
# B2: Lymphotoxin: bone resorbing factor (protein, UniProt P01374 35-205, looked up)
# Lymphotoxin-alpha: LPGVGLTPSAAQTARQHPKMHLAHSTLKPAAHLIGDPSKQNSLLWRANTDRAFLQDGFSLSNNSLLVPTSGIYFVYSQVVFSGKAYSPKATSSPLYLAHEVQLFSSQYPFHVPLLSSQKMVYPGLQEPWLHSMYHGAAFQLTQGDQLSTHTDGIPHLVLSPSTVFFGAFAL
# How the values were obtained:
# isolated rat osteoclasts = assay: Disaggregated rat osteoclast pit formation assay on sperm whale dentine; type: cell-based
# Description: Quantitation of the effects of isolated osteoclasts on calcified matrices was determined using minor modifications of the disaggregated osteoclast resorption assay as described by Boyde et al. (1984). Sperm whale dentine (0.25×7×7 mm) was prepared using a Buehler low speed diamond saw (Buehler, Lake Bluff, Ill.) followed by sonication (15 min) in several changes of distilled water. Slices were sterilized using ultraviolet light.
# Neonatal Sprague-Dawley rats (2-3 days) were sacrificed by decapitation, the femurs and tibias were removed, scraped free of adherent tissue, and trimmed free of the epiphyses. The bones from one litter were combined and quickly minced using a scalpel blade in 2 ml of 199 medium and then vigorously mixed with a pipette in an 8-ml tube, allowed to settle for 10 s, and then 100 μl of the suspension was added to each well for a total of 16 wells in a 48-well microtiter plate containing sperm whale dentine (approximately four neonates are used per 16 wells). The cells were incubated at 37° C. for 30 min at which time the dentine was removed, washed in media, and placed in a fresh 48-well plate containing 250 μl of test medium.
# Osteoclasts were stained for TRAP and counted and then pit numbers were counted following toluidine blue (0.1% w/v) staining by light microscopy. The plan area of matrix resorbed was quantitated using a computer-assisted morphometric program on a Bioquant System IV analysis system (R & M Biometrics, Nashville, Tenn.).
# Quantitation of the effects of isolated neonatal rat osteoclasts on calcified matrices was determined using minor modifications of the disaggregated osteoclast resorption assay as described by Boyde et al (1984). Briefly rat osteoclasts isolated as described by Chambers et al. (1983) were dispersed on prewetted (AMEM plus 5% FBS) slices of sperm whale dentine. Cultures were performed in 48 well-microtiter plates in humidified air (10% CO2) at 37° C. in αMEM medium (one slice/well in 200 μl medium). Numbers of osteoclasts and resorption lacunae were quantitated as described above for the avian osteoclasts.
# C433 cells = assay: Production of osteoclast-stimulating activity by C433 cells (conditioned medium bioassayed for TRAP in avian osteoclasts); type: cell-based, human; settings: flurbiprofen 10^−5 M; indomethacin 10^−6 M; nordihydroguaiaretic acid 10^−6, 10^−5 or 10^−4 M
# Description: FIG. 3A, FIG. 3B, FIG. 3C and FIG. 3D. Chemical characterization of activity. FIG. 3A. C433-conditioned medium was treated with ultraviolet-light (UV) for 24 h or placed in a boiling water bath (100° C.) for 15 min and bioassayed. FIG. 3B. amino peptidase M (A), carboxypeptidase (C), or Pronase-CB (P) were incubated in the presence of C433-conditioned medium for 12 h at 37° C. FIG. 3C. […] The resultant conditioned medium was bioassayed for activity. FIG. 3D. […] Conditioned medium was bioassayed for induction of TRAP activity in avian osteoclasts.
# C433 cells were grown in 10% fetal bovine serum (Whittaker, Walkersville, Md.) 50% RPMI, 50% McCoys (Flow, McLean, Va.) until a density of 10^4 cells/ml was obtained, at which time the cells were harvested, washed, and placed in serum-free DMEM plus 10^−8 M, 1,25-(OH)2D3 for 48 h before harvest of conditioned medium. […] This conditioned medium was applied to a prewetted C18 Sep-Pak (Millipore, Waters, Milford, Mass.), and bound material was extracted using ethyl acetate. This material was dried under nitrogen and resuspended in water, it acetic acid and analyzed by high pressure measure liquid chromatography (HPLC) (Waters, Milford, Mass.) applied to a C8 semipreparative 25 cm×10 mm reverse phase column (Keystone Scientific, Inc., Bellefonte, Pa.) at 2 ml/min. The gradient was 0-100% methanol, 1% acetic acid over 60 min with 6-ml fractions collected. The fractions were dried under nitrogen, and those fractions to be assayed for osteoclast stimulating activity were stabilized with 20 μl of 10% bovine serum albumin. Fractions to be used for gas chromatography-mass spectrometric analysis were prepared for derivatization.
# neonatal mouse calvariae = assay: Neonatal mouse (murine) calvarial assay, 45Ca release; type: cell-based; settings: for 45Ca release, Factor alone (Table II): IL-1 5 × 10^−10M, TNF 2 × 10^−10M, Lymphotoxin 5 × 10^−9M, PTH 4 ng/ml
# Description: The assay was performed as described by Gowen et al. (1983). Timed pregnant mice were injected with ^45Ca 2 days before parturition. Half-calvaria were removed from the 1-2-day-old pups and preincubated for 24 h in BGJb medium at 37° C. in a humidified atmosphere of 5% CO2 before transfer to fresh media with or without test substances for 48 h. The bones were incubated for a further 72 h and media and bones collected. Bone-resorbing activity was expressed as the percentage of the total ^45Ca released into the medium.
# [1] = system: isolated avian osteoclasts; assay: TRAP activity in isolated avian osteoclasts; type: cell-based, Gallus domesticus; settings: 10^−8 M stimulates suboptimally
# Description: Avian osteoclasts were isolated from medullary bone of laying White Leghorn hens Gallus domesticus (Pioneer Animal Supply, Kingswheel, Ohio) as described previously by Zambonin-Zallone and Teti (1981). In brief, bone marrow suspensions from the medullary bone of femora were filtered through Nytex cloth (110 μm, t'etko, Elmsford, N.Y.), centrifuged for 5 min at 1200 rpm, and the cell pellet resuspended in 0.2% NaCl for 3 min to lyse erythrocytes. After layering the cells on 100% fetal bovine serum for 1 h, sedimented cells were further filtered through Nytex filters (55 μm). Cells were harvested, resuspended in α-minimal Eagle's medium (GIBCO) containing 10 fetal bovine serum, with penicillin (100 units/ml), streptomycin (100 μg/ml), and Ara-C, to inhibit proliferation of nonosteoclastic cells. Cells were plated in 24- or 48-well plates (Costar, Cambridge, Mass.) at 1×10^4 cells/well and incubated at 37° C. in 10% CO2 humidified air for 48 h, after which they were washed to remove nonadherent cells. When matured osteoclasts were observed experiments were begun and terminated within 48 h.
# Osteoclast TRAP activity was measured using fluorescence spectroscopy as described by Chambers et al. (1987) with minor modifications. In brief, media from osteoclast cultures were harvested and stored at −70° C. until ready for assay.
# The cells were washed with phosphate-buffered saline and harvested in 0.5 ml of Triton X-100 (0.05%, w/v). Aliquots of media or lysate 30 μl) were incubated with 170 μl of 2 mM methylumbelliferyl phosphate, pH 5.0, in 0.48 M acetate buffer (0.48 M sodium acetate, 0.48 M acetic acid, pH 5.0) and 30 mM tartaric acid. Samples were incubated for 30 min at 37° C. and the reaction terminated with 100 μl of stop solution containing 50 mM glycine, 50 mM EDTA, pH 10.4. Fluorescence was measured at excitation 360 nm and emission 448 nm using a fluorimeter (Fluoroskan, Flow Instruments). Enzyme activity was expressed as micromoles of methylumbelliferyl phosphate hydrolyzed/min/μg of protein and the protein content measured by the technique of Lowry et al. (1951).
# [2] = 1,25D3 10^−10M + MK886 2.5 μg/ml
# [3] = IL-1 1 × 10^−10M + MK886 2.5 μg/ml
molecule,measurement,setting,value
"CCCCC/C=C\C\C=C/C=C/C=C/[C@@H](SC[C@H](N)C(=O)O)[C@@H](O)CCCC(=O)O [LTE4, leukotriene E4]",stimulation of pit formation,isolated rat osteoclasts; 10^−10 M,stimulated
COc1ccc2c(c1)c(CC(=O)O)c(C)n2C(=O)c1ccc(Cl)cc1 [indomethacin],effect on production of C433 activity,C433 cells,no significant effects
"IL-1: interleukin-1, bone resorbing factor","45Ca release, factor alone (Table IV)","neonatal mouse calvariae; 1,25D3 10^−10M, IL-1 1 × 10^−10M",38.9%
same,"45Ca release, Factor alone (Table II)","neonatal mouse calvariae; 1,25D3 10^−10M",27.7% and 31.2%
same,"45Ca release, Factor alone (Table VII)","neonatal mouse calvariae; IL-1β 5 × 10^−10M, TNF 5 × 10^−10M, LPS WR14 50 ng/ml",32.0%
"CCCCC/C=C\C\C=C/C=C/C=C/[C@@H](SC[C@H](N)C(=O)NCC(=O)O)[C@@H](O)CCCC(=O)O [LTD4, leukotriene D4]",concentration of optimal stimulation of TRAP activity,[1],10^−10 M
CCCCC/C=C\C[C@@H](O)/C=C/C=C/C=C\[C@@H](O)CCCC(=O)O [LTB4],stimulation of bone resorption in neonatal mouse calvariae (in words),neonatal mouse calvariae,found to stimulate osteoclastic bone resorption
same,concentration showing statistically significant resorption stimulation,"neonatal mouse calvariae; dose response, FIG. 8C",10^−8 to 10^−6 M
CC(C)c1ccc2c(c1)c(SC(C)(C)C)c(CC(C)(C)C(=O)O)n2Cc1ccc(Cl)cc1 [MK886],"inhibition of 1,25(OH)2 vitamin D3-induced bone resorption (in words)","neonatal mouse calvariae; 1,25(OH)2 vitamin D3 as factor",significantly inhibited
same,"45Ca release, factor + MK886",neonatal mouse calvariae; [2],32.1%
same,% Inhibition,neonatal mouse calvariae; [2],23.4%
same,% Inhibition,neonatal mouse calvariae; AAY4 LPS 25 μg/ml + MK886,20.9%
same,"Ca^45 Release, LPS + MK886",neonatal mouse calvariae; AAY4 LPS 25 μg/ml + MK886 (concentration not given),22.6%
same,inhibition of LPS-induced bone resorption (in words),neonatal mouse calvariae; AaY4 LPS and/or WR14 LPS,only mildly inhibited
same,"45Ca release, factor + MK886",neonatal mouse calvariae; [3],34.9%
same,% Inhibition,neonatal mouse calvariae; [3],23.0%
same,inhibition of IL-1-induced bone resorption (in words),neonatal mouse calvariae; IL-1 as factor,significant inhibition of Interleukin-1 induced bone resorption was not noted
same,"45Ca release, MK886 alone","neonatal mouse calvariae; MK886 2.5 μg/ml, no factor",9.6% and 14.2%
same,% Inhibition,neonatal mouse calvariae; WR14 LPS 50 ng/ml + MK886,8.2%
same,"Ca^45 Release, LPS + MK886",neonatal mouse calvariae; WR14 LPS 50 ng/ml + MK886 (concentration not given),32.8%
same,inhibition of PTH and PTHrP-induced bone resorption,"isolated rat osteoclasts; NDGA 10^−6M, MK886 1 μg/ml, ZM 230,487 10 ng/ml, 20 hours",inhibition of the bone resorption was seen
same,order of inhibitory effectiveness,"isolated rat osteoclasts; PTH and PTHrP-induced bone resorption, NDGA 10^−6M, MK886 1 μg/ml, ZM 230,487 10 ng/ml",ZM230487>MK886>NDGA
"CC(C(=O)O)c1ccc(-c2ccccc2)c(F)c1 (centres unmarked) [Flurbiprofen, flurbiprofen]",effect on production of C433 activity,C433 cells,no significant effects
B1,"45Ca release, Factor alone (Table II)","neonatal mouse calvariae; 1,25D3 10^−10M",37.0% and 39.9% and 29.8%
same,"% Total Calcium Released, PTH alone (Table VI)",neonatal mouse calvariae; PTH 10 ng/ml,30.5 ± 2.4%
B2,"45Ca release, Factor alone (Table II)","neonatal mouse calvariae; 1,25D3 10^−10M",35.0% and 42.8%
